The record followed here is PubChem BioAssay AID1996.

In brackets after ≈: the same amount, converted by molar mass. Some results are limits rather than exact numbers.

A word on the solubility (kinetic): it is the concentration staying in solution when a stock, usually in DMSO, is diluted into the medium.

For this series the following is noted: buffer; pH 7.4; 200.0 µM.
As to `O=C(CN1C(=O)c2cccc3cccc(c23)C1=O)N1CCOCC1`, the solubility (kinetic) is more than 48.7 µg/mL. For `COc1ccc(NC(=O)CN2CCCCCC2)cc1OC` the value was 32.2 µg/mL (≈ 110 µM); for `O=C(Cc1ccc([N+](=O)[O-])cc1)NC(C(=O)[O-])C(O)c1cccc([N+](=O)[O-])c1.[Na+]` (configuration not stated), more than 61.7 µg/mL. For `COc1ccc(C(=O)NCC(C)NC(=O)c2ccc(OC)c(OC)c2)cc1OC` (configuration not stated) the value was 8.9 µg/mL (≈ 22.1 µM); for `N#CCn1cnc2c(oc3ccccc32)c1=O`, more than 33.8 µg/mL. Take `O=C(COC(=O)c1ccco1)Nc1cc(S(=O)(=O)N2CCOCC2)ccc1Cl`: the solubility (kinetic) came out at 16.4 µg/mL (≈ 38.2 µM). `COc1cccc(-n2c(/C=C/c3ccccn3)nc3ccccc3c2=O)c1` came in with a kinetic solubility of 0.5 µg/mL (≈ 1.41 µM). For `Cc1cc(C)c(NC(=O)CSc2cccc[n+]2[O-])c(C)c1` the value was more than 45.4 µg/mL; for `CCOc1ccc(C(C)NC(=O)c2cccs2)cc1OCC` (configuration not stated), 11.1 µg/mL (≈ 34.7 µM). The compound `CC(Sc1nccn1C)C(=O)NC1(C#N)CCCCC1` (configuration not stated) showed a solubility (kinetic) of more than 43.9 µg/mL. For `CCCn1c(=O)c(C(=O)Nc2ccccc2C)c(O)c2ccccc21` the value was less than 0.4 µg/mL; for `COc1ccc(C(=O)C2CCCN(CCO)C2)c(C)c1` (configuration not stated), 30.3 µg/mL (≈ 109 µM); for `O=C(/C=C/c1ccco1)NCCc1ccc(F)cc1`, 10.3 µg/mL (≈ 39.7 µM). With `CCOC(=O)c1ccccc1NC(=O)COC(=O)C1CCCC1`, the kinetic solubility was found to be 3.1 µg/mL (≈ 9.71 µM). The compound `CN(CC(=O)Nc1ccc(F)cc1)C(=O)CCc1ccccc1` registered a solubility (kinetic) of 41.9 µg/mL (≈ 133 µM). As to `Brc1ccccc1C1N=C(c2ccccc2)NO1` (configuration not stated), the solubility (kinetic) amounted to 10.5 µg/mL (≈ 34.6 µM). To `COc1ccc(C2C(C#N)=C(N)Oc3cc(O)ccc32)cc1Cl` (configuration not stated) belongs 43.5 µg/mL (≈ 132 µM). Consider `CCCc1nc(-c2cc3ccccc3[nH]c2=O)no1`, for which the kinetic solubility is more than 38.3 µg/mL. For `Cc1ccc(S(=O)(=O)CC(=O)c2ccccc2[N+](=O)[O-])cc1` the value was 42.8 µg/mL (≈ 134 µM).

Compound `COc1cc(OC)c(OC)cc1CNCc1ccco1` displayed a solubility (kinetic) of 38.7 µg/mL (≈ 140 µM). Take `COc1cccc(NC(=O)CN2C(=O)NC3(CCCCCC3)C2=O)c1`: the solubility (kinetic) is more than 51.8 µg/mL.

As for `CCc1ccccc1N1C(=O)[C@@H]2Cc3ccccc3CN2C1=O`, the kinetic solubility was found to be 43.1 µg/mL (≈ 141 µM). To `Cc1ccc(-c2nnc(SCC(=O)NC3CCCC3)n2N)cc1` belongs more than 49.7 µg/mL; to `Cc1ccc(Cl)cc1NC(=O)CCC(=O)O`, more than 36.3 µg/mL; to `O=C1NC(=O)N(Cc2ccc(F)cc2)C(=O)/C1=C\c1ccoc1`, 46.6 µg/mL (≈ 148 µM). For the compound `Cc1ccc(NC(=O)c2cc3c(=O)oc4ccc(C)cc4c3s2)nc1`, the solubility (kinetic) was less than 0.4 µg/mL. On to `COc1ccccc1NC(=O)CC(=O)c1ccccc1`, for which the solubility (kinetic) was more than 40.4 µg/mL. For `COc1cccc(N(CC(=O)N2CCCC2)S(C)(=O)=O)c1` the value was more than 46.9 µg/mL. With `CC(=O)Nc1cccc(NC=C(C#N)C#N)c1`, the kinetic solubility was 11.7 µg/mL (≈ 51.7 µM). In turn, `O=C(COC(=O)C12CC3CC(CC(C3)C1)C2)Nc1ccc2[nH]c(=O)[nH]c2c1` showed a solubility (kinetic) of 1.3 µg/mL (≈ 3.52 µM). Compared with the last compound, the solubility kinetic is about 9-fold lower.

Turning to `CCN1CCN(c2ccc(N)c(C)c2)CC1`, the solubility (kinetic) came out at 28.7 µg/mL (≈ 131 µM). To `O=C(Nc1ccccc1F)N1CCc2ccccc2C1` belongs more than 40.5 µg/mL; to `Cc1oc(-c2cccc(Br)c2)[n+]([O-])c1C`, more than 40.2 µg/mL. For `CCN(CC(=O)N1CCCCC1)S(=O)(=O)c1ccccc1` the value was 42.4 µg/mL (≈ 137 µM); for `CC(=O)c1cccc(Nc2cc(C)nc3c(C)cccc23)c1.Cl`, more than 49 µg/mL. `CCCOc1ccccc1/C=C1\SC(N)=NC1=O` came in with a kinetic solubility of 2.1 µg/mL (≈ 8.01 µM). Compound `O=C(Nc1cc(Cl)ccc1N1CCOCC1)c1cccnc1Cl` showed a solubility (kinetic) of 49.7 µg/mL (≈ 141 µM). Turning to `COc1ccc(/C=C/C(=O)Nc2ccccc2F)cc1S(=O)(=O)N1CCOCC1`, the kinetic solubility was 37.5 µg/mL (≈ 89.2 µM). To `O=C(O)Cn1c(Cc2ccccc2)nc2ccccc21` belongs 22.4 µg/mL (≈ 84.1 µM); to `Cn1c(=O)n(CCOc2ccc([N+](=O)[O-])cc2)c2ccccc21`, 1.1 µg/mL (≈ 3.51 µM); to `N#CCc1ccc(NC(=O)c2ccc(CN3CCc4ccccc4C3)cc2)cc1`, 1.6 µg/mL (≈ 4.19 µM). In turn, `O=C(NCC(=O)N1CCN(c2ncccn2)CC1)c1ccccc1OC(F)F` returned a solubility (kinetic) of 52.2 µg/mL (≈ 133 µM). To `O=C1CN(C(=O)COC(=O)CCS(=O)(=O)c2ccccc2Cl)c2ccccc2N1` belongs more than 65.5 µg/mL; to `COc1ccc(CCN(C)C/C=C/c2ccccc2)cc1OC`, 30.1 µg/mL (≈ 96.7 µM).

In turn, `Cc1ccc(NC(=O)Nc2cnccn2)cc1C` registered a kinetic solubility of 9.5 µg/mL (≈ 39.2 µM). This solubility kinetic is about 3.2-fold lower than that of the compound before. `CCOC(=O)N1CCN(CC(=O)c2ccc(O)c(C)c2O)CC1` displayed a kinetic solubility of 40.7 µg/mL (≈ 126 µM). To `COc1ccc(C(C)=O)cc1Cn1nc(C)c([N+](=O)[O-])c1C` belongs more than 45.5 µg/mL. For `O=C(NCC1CCCO1)C1CC(=O)N(c2ccccc2)C1` (configuration not stated) the value was more than 43.3 µg/mL. To `CCOC(=O)c1cnc(COc2ccc(OC)cc2)[nH]c1=O` belongs 44.7 µg/mL (≈ 147 µM); to `O=C(NCCN1CCOCC1)C1CC(=O)N(c2ccc(F)cc2)C1` (configuration not stated), 48.8 µg/mL (≈ 146 µM). `Cc1cnc(C(=O)NC(C)CCc2ccccc2)cn1` (configuration not stated) gave a solubility (kinetic) of more than 40.4 µg/mL. To `CCOc1cccc(C2CC(=O)Nc3cc(OC)c(OC)cc32)c1` (configuration not stated) belongs 12.5 µg/mL (≈ 38.2 µM); to `CCOC(=O)N1CCN(C(=O)c2ccc(S(=O)(=O)Nc3ccccc3)cc2)CC1`, more than 62.6 µg/mL.

In the case of `COc1ccc(CCN(C)c2ncnc3sccc23)cc1OC`, the solubility (kinetic) was more than 49.4 µg/mL. In turn, `Cc1onc(-c2ccccc2)c1-c1ccc(S(N)(=O)=O)cc1` yielded a solubility (kinetic) of more than 47.2 µg/mL.

With `CC(C)c1ccc(N=C2N=C(N)c3ccccc32)cc1`, the kinetic solubility turned out to be 15.4 µg/mL (≈ 58.5 µM). Turning to `COc1ccc(-c2csc(NC(=O)Cc3ccccc3)n2)cc1OC`, the solubility (kinetic) was 0.7 µg/mL (≈ 1.97 µM). The compound `O=C(CCNC(=O)c1ccccc1Cl)NCc1cccnc1` came in with a kinetic solubility of more than 47.7 µg/mL. Take `CC(=O)CSc1nc(-c2ccccc2)c(-c2ccccc2)o1`: the solubility (kinetic) amounted to 3.1 µg/mL (≈ 10 µM). Turning to `CCOC(=O)N1CCN(CC(=O)Nc2cc(OC)c(OC)cc2C#N)CC1`, the kinetic solubility worked out at 16.3 µg/mL (≈ 43.3 µM).

Regarding `CC(=O)N1CCN(CC(=O)Nc2ccc(C#N)c(Cl)c2)CC1`, the solubility (kinetic) was more than 48.1 µg/mL. `CCSc1nnc(SCC(=O)Nc2cc(C)on2)s1`: the kinetic solubility is more than 47.5 µg/mL. For `CN(CC(=O)NCCCn1ccnc1)S(=O)(=O)c1ccc(Cl)cc1` the value was more than 55.6 µg/mL; for `CCOC(=O)CC(NC(=O)c1ccc(C)cc1)c1ccc(OC)cc1` (configuration not stated), 8.5 µg/mL (≈ 24.9 µM). The compound `CC(C)(C)c1ccccc1NC(=O)NC1CCN(Cc2c(F)cccc2Cl)CC1` returned a solubility (kinetic) of 0.5 µg/mL (≈ 1.2 µM). Compared with the last compound, the solubility kinetic is about 17-fold lower. Take `Cc1ccc(S(=O)(=O)N2CCN(C(=O)CN3C(=O)NC(C)(c4ccc(Cl)cc4)C3=O)CC2)c(C)c1` (configuration not stated): the kinetic solubility is 3.3 µg/mL (≈ 6.36 µM). To `O=C(CSc1nnc(-c2ccncc2)o1)N1CCCC1` belongs more than 43.6 µg/mL; to `O=C(COC(=O)CNC(=O)C1CCCCC1)NCc1ccc(Cl)cc1`, 49.5 µg/mL (≈ 135 µM). `O=S(=O)(/C=C/c1cccc(Br)c1)N1CCOCC1` displayed a kinetic solubility of 40 µg/mL (≈ 120 µM).

For the compound `CN(C)c1ccc(CNCc2cccnc2)cc1`, the solubility (kinetic) amounted to 33.3 µg/mL (≈ 138 µM). This solubility kinetic and that of the compound before are within 1.5-fold of each other. `Cc1ccc(C)c(N2CCN(c3ccc([N+](=O)[O-])cn3)CC2)c1` yielded a solubility (kinetic) of less than 0.2 µg/mL. For the compound `O=C(COc1ccc(Cl)cc1)NCCN1CCCCC1`, the solubility (kinetic) is more than 44.5 µg/mL. To `COc1cccc(CN2CCNCC2)c1OC` belongs 20.3 µg/mL (≈ 85.9 µM); to `Cc1ccccc1C(=O)NNC(=O)c1ccc2nc[nH]c2c1`, more than 44.1 µg/mL; to `Cc1nc(-c2ccccc2OC(F)(F)F)[nH]c(=O)c1Cl`, 43.2 µg/mL (≈ 142 µM). For `O=C(O)Cc1sc(NCc2ccco2)nc1-c1ccccc1` the value was 46.8 µg/mL (≈ 149 µM). To `COc1ccccc1NC(=S)NC1CC2CCC1C2` (configuration not stated) belongs more than 41.5 µg/mL; to `Nc1ccc(N2CCCCC2)c2nonc12`, more than 32.7 µg/mL. On to `CC(Nc1ccc2c(c1)OCCO2)C(=O)Nc1ccc2c(c1)OCO2` (configuration not stated), for which the kinetic solubility was more than 51.4 µg/mL.

Compound `Cc1ccc[n+](Cc2ccc([N+](=O)[O-])cc2)c1.[Br-]` returned a kinetic solubility of more than 46.4 µg/mL. For `Cc1ccsc1CN(C)CC(=O)Nc1ccccc1C(=O)NC1CC1`, the solubility (kinetic) is more than 53.6 µg/mL. For `O=C(c1ccc2nc(Cc3ccccc3F)oc2c1)N1CCCC1` the value was 33.5 µg/mL (≈ 103 µM); for `CN(c1ccccc1)c1nc(N)c([N+](=O)[O-])c(Nc2ccccc2)n1`, less than 0.1 µg/mL; for `CC(=O)c1cccc(NCC(=O)c2ccc(C)c([N+](=O)[O-])c2)c1`, 13.7 µg/mL (≈ 43.9 µM). To `Cc1cc(C(=O)N2CCCC(Nc3ccc(F)cc3)C2)n(C)n1` (configuration not stated) belongs more than 47.5 µg/mL.

`Cc1csc(NC(=O)c2ccc(S(C)(=O)=O)cc2)n1` showed a kinetic solubility of more than 44.5 µg/mL.

`CCOC(=O)c1cnc(COc2ccccc2Cl)[nH]c1=O` had a kinetic solubility of more than 46.3 µg/mL.

`Cl.NCc1ccc2[nH]c(=O)[nH]c2c1`: the solubility (kinetic) was more than 29.9 µg/mL.

The compound `Nc1ccc2nc(-c3cccc(-c4nc5ccc(N)cc5[nH]4)n3)[nH]c2c1` displayed a kinetic solubility of 21.5 µg/mL (≈ 63 µM). Regarding `O=C(COC(=O)c1ccc(Cl)nc1)NC1CCCCCC1`, the solubility (kinetic) is more than 46.6 µg/mL.

The compound `COc1ccc(OC)c(-c2csc(-c3cccs3)n2)c1` returned a kinetic solubility of less than 0.6 µg/mL. To `Cc1nn(-c2ccc(F)cc2)c(C)c1/C=C/C(=O)N1CCNC(=O)C1` belongs more than 51.4 µg/mL. As for `Cc1ccc(CNC(=O)CSCc2ccccc2)cc1`, the kinetic solubility is 19.7 µg/mL (≈ 69 µM).

For the compound `O=C(COC(=O)C1COc2ccccc2O1)NC1CCCCC1` (configuration not stated), the kinetic solubility is more than 47.9 µg/mL. To `CCOc1cccc2cc(C(=O)N3CCOCC3)c(=O)oc12` belongs more than 45.5 µg/mL; to `CN(Cc1ccccc1)C(=O)COc1ccc(C(C)(C)C)cc1`, less than 0.7 µg/mL; to `COC(=O)Nc1nc(-c2ccc(F)cc2)c(C)s1`, 2.2 µg/mL (≈ 8.26 µM). For the compound `COc1ccccc1NC(=O)N1CCN(c2ccnc3cc(Cl)ccc23)CC1`, the kinetic solubility worked out at 18.5 µg/mL (≈ 46.6 µM). Against the preceding compound, the solubility kinetic is about 8.4-fold higher.

In turn, `COc1ccc(CNC(=O)c2cc(SC)ccc2Cl)cc1OC` yielded a kinetic solubility of 49.1 µg/mL (≈ 140 µM). In turn, `COc1ccc(NC(=O)Nc2ccc(Br)c(C)c2)cc1` displayed a solubility (kinetic) of less than 0.4 µg/mL.

With `CC(=O)c1sc(Nc2nc3cc4c(cc3s2)OCO4)nc1C`, the kinetic solubility was 0.6 µg/mL (≈ 1.8 µM). To `O=C(NCC1CCCO1)c1ccccc1NS(=O)(=O)c1cc([N+](=O)[O-])ccc1Cl` (configuration not stated) belongs more than 66 µg/mL.
